Reference: patent US5968910A, “Compositions containing two or three inhibitors of different HIV reverse transcriptases” (priority 1994, dated 1999)
Read-outs that look alike come from different tables or passages of the source.

System: HIV-1
Assay: Breakthrough of mutant HIV-1 strains in CEM cell cultures, single drugs and double/triple combinations
Type: cell-based
Conditions: for activity at 0.04 µg/mL / activity at 0.1 µg/mL / activity at 0.25 µg/mL: Human immunodeficiency virus 1, CCRF-CEM, read-out: HIV-1-induced syncytium formation in CEM cells; for activity at 0.04 µg/mL: single drug 0.04 μg/ml; for activity at 0.1 µg/mL: single drug 0.10 μg/ml; for activity at 0.25 µg/mL: single drug 0.25 μg/ml
Method: The culture medium consisted of RPMI 1640 containing 10% fetal bovine serum, 2 mM L-glutamine, and 0.075% NaHCO3. The multiplicity of the initial infection was ~1000 times the CCID50 (50% cell culture infective dose). Passages were performed every 3 to 4 days by adding 0.5 to 1.0 ml of the infected culture supernatant to 5 ml of a suspension containing 4×10^5 uninfected CEM cells per ml. Syncytium formation was used as a parameter of virus breakthrough in the cell cultures. In the drug combination experiments, the compounds were combined at the same initial concentrations as used for the two lowest concentrations in the single-drug experiments.
Compound IV, BHAP and TSAO-m^3 T were added to HIV-1-infected CEM cell cultures at 0.04, 0.10 and 0.25 ug/ml (Compound IV and BHAP) or 1.0, 2.5 and 5.0 μg/ml (TSAO-m^3 T). In addition, various double- and triple-drug combinations of Compound IV, BHAP and TSAO-m^3 T were performed, combining these inhibitors at their lowest (0.04 μg/ml) or intermediary (0.1 μg/ml) concentration as used in the single-drug experiments.

`Cc1occc1C(=S)Nc1ccc(Cl)c(C(=O)OC2CCCC2)c1` [Compound IV] was tested, and the activity at 0.04 µg/mL (96 h, day 4 post infection) was 0%, the activity at 0.1 µg/mL (96 h, day 4 post infection) was 0% and the activity at 0.25 µg/mL (96 h, day 4 post infection) was 0%. It also gave an activity at 0.04 µg/mL (168 h, day 7 post infection) of 0%, an activity at 0.1 µg/mL (168 h, day 7 post infection) of 0% and an activity at 0.25 µg/mL (168 h, day 7 post infection) of 0%. The activity at 0.04 µg/mL (264 h, day 11 post infection) was 6.25%, the activity at 0.1 µg/mL (264 h, day 11 post infection) was 0% and the activity at 0.25 µg/mL (264 h, day 11 post infection) was 0%. It also gave an activity at 0.04 µg/mL (336 h, day 14 post infection) of 12.5%, an activity at 0.1 µg/mL (336 h, day 14 post infection) of 6.25% and an activity at 0.25 µg/mL (336 h, day 14 post infection) of 0%. The activity at 0.04 µg/mL (432 h, day 18 post infection) was 100%, the activity at 0.1 µg/mL (432 h, day 18 post infection) was 6.25% and the activity at 0.25 µg/mL (432 h, day 18 post infection) was 0%. For the same molecule, the activity at 0.04 µg/mL (504 h, day 21 post infection) was 100%, the activity at 0.1 µg/mL (504 h, day 21 post infection) was 87.5% and the activity at 0.25 µg/mL (504 h, day 21 post infection) was 3.12%. It also gave an activity at 0.04 µg/mL (600 h, day 25 post infection) of 100%, an activity at 0.1 µg/mL (600 h, day 25 post infection) of 87.5% and an activity at 0.25 µg/mL (600 h, day 25 post infection) of 19%. For the same molecule, the activity at 0.04 µg/mL (672 h, day 28 post infection) was 100%, the activity at 0.1 µg/mL (672 h, day 28 post infection) was 100% and the activity at 0.25 µg/mL (672 h, day 28 post infection) was 75%. The activity at 0.04 µg/mL (768 h, day 32 post infection) was 100%, the activity at 0.1 µg/mL (768 h, day 32 post infection) was 100% and the activity at 0.25 µg/mL (768 h, day 32 post infection) was 100%. The activity at 0.04 µg/mL (840 h, day 35 post infection) was 100%, the activity at 0.1 µg/mL (840 h, day 35 post infection) was 100% and the activity at 0.25 µg/mL (840 h, day 35 post infection) was 100%. The activity at 0.04 µg/mL (936 h, day 39 post infection) was 100%, the activity at 0.1 µg/mL (936 h, day 39 post infection) was 100% and the activity at 0.25 µg/mL (936 h, day 39 post infection) was 100%. It also gave an activity at 0.04 µg/mL (1008 h, day 42 post infection) of 100%, an activity at 0.1 µg/mL (1008 h, day 42 post infection) of 100% and an activity at 0.25 µg/mL (1008 h, day 42 post infection) of 100%. For the same molecule, the activity at 0.04 µg/mL (1104 h, day 46 post infection) was 100%, the activity at 0.1 µg/mL (1104 h, day 46 post infection) was 100% and the activity at 0.25 µg/mL (1104 h, day 46 post infection) was 100%. The activity at 0.04 µg/mL (1176 h, day 49 post infection) was 100%, the activity at 0.1 µg/mL (1176 h, day 49 post infection) was 100% and the activity at 0.25 µg/mL (1176 h, day 49 post infection) was 100%. The activity at 0.04 µg/mL (1272 h, day 53 post infection) was 100%, the activity at 0.1 µg/mL (1272 h, day 53 post infection) was 100% and the activity at 0.25 µg/mL (1272 h, day 53 post infection) was 100%. It also gave an activity at 0.04 µg/mL (1344 h, day 56 post infection) of 100%, an activity at 0.1 µg/mL (1344 h, day 56 post infection) of 100% and an activity at 0.25 µg/mL (1344 h, day 56 post infection) of 100%. The activity at 0.04 µg/mL (1440 h, day 60 post infection) was 100%, the activity at 0.1 µg/mL (1440 h, day 60 post infection) was 100% and the activity at 0.25 µg/mL (1440 h, day 60 post infection) was 100%. For the same molecule, the activity at 0.04 µg/mL (1536 h, day 64 post infection) was 100%, the activity at 0.1 µg/mL (1536 h, day 64 post infection) was 100% and the activity at 0.25 µg/mL (1536 h, day 64 post infection) was 100%. For the same molecule, the activity at 0.04 µg/mL (1608 h, day 67 post infection) was 100%, the activity at 0.1 µg/mL (1608 h, day 67 post infection) was 100% and the activity at 0.25 µg/mL (1608 h, day 67 post infection) was 100%. It also gave an activity at 0.04 µg/mL (1704 h, day 71 post infection) of 100%, an activity at 0.1 µg/mL (1704 h, day 71 post infection) of 100% and an activity at 0.25 µg/mL (1704 h, day 71 post infection) of 100%. It also gave an activity at 0.04 µg/mL (1776 h, day 74 post infection) of 100%, an activity at 0.1 µg/mL (1776 h, day 74 post infection) of 100% and an activity at 0.25 µg/mL (1776 h, day 74 post infection) of 100%. It also gave an activity at 0.04 µg/mL (1848 h, day 77 post infection) of 100%, an activity at 0.1 µg/mL (1848 h, day 77 post infection) of 100% and an activity at 0.25 µg/mL (1848 h, day 77 post infection) of 100%. For the same molecule, the “virus breakthrough delayed till day” value (single drug, highest concentration) was 21 days.
